Results on 39 molecules are retold here after the CATMoS acute toxicity set (Mansouri et al. 2021).

Molecules are shown by their SMILES.

The nature of the series: GHS categories as the set defines them, by LD50: 1 up to 5, 2 up to 50, 3 up to 300, 4 up to 2000, 5 above 2000 mg/kg. The settings on record: rat; in vivo; po.

Turning to `COC(=O)c1c(C(F)F)nc(C(F)(F)F)c(C2=NCCS2)c1CC(C)C`, the GHS category is on record as 5. With `C=COCCCCCCCCCCCCCCCCCC`, the GHS category came out at 5. To `O=C(O)c1cc(N=Nc2ccc(N=Nc3ccc(S(=O)(=O)O)cc3)cc2)ccc1O` belongs 5. With `CC(C)c1cc(C(C)C)cc(C(C)C)c1` the figure was 5; with `O=C1c2ccccc2C(=O)c2c(NCCO)ccc(NCCO)c21`, 5. With `COc1ccc2c(c1)CCN(c1ccccc1)C2c1ccccc1F` (centres undefined) the figure was 4; with `Oc1ccc(C(O)CNCCCCCCNCC(O)c2ccc(O)c(O)c2)cc1O` (centres undefined), 5; with `CCOC(=O)C(=O)Nc1cc(SCCOC)ncn1`, 4. `c1cnn(-c2cc(-n3cccn3)ncn2)c1` came in with a GHS category of 5. To `NCCCC[C@H](N[C@@H](CCc1ccccc1)C(=O)O)C(=O)N1CCC[C@H]1C(=O)O` belongs 5. In turn, `CCCCCCCCOC(=O)c1ccc(C(=O)OCCCCCCCC)c(C(=O)OCCCCCCCC)c1` yielded a GHS category of 5. `CCCCCCCC/C=C\CCCCCCCC(=O)OCC(C)(C)COC(=O)CCCCCCC/C=C\CCCCCCCC` gave a GHS category of 5. On to `CCN(CCCSc1nnnn1C)C(=O)C1CCCCC1`, for which the GHS category is recorded as 4.

Regarding `CCOc1ccc(Nc2ccc(C(=C3C=CC(=[N+](CC)Cc4cccc(S(=O)(=O)[O-])c4)C=C3C)c3ccc(N(CC)Cc4cccc(S(=O)(=O)O)c4)cc3C)cc2)cc1`, the GHS category stood at 5. To `Clc1cc(Cl)ncn1` belongs 3; to `CCCCCCCCCCCCCCCOS(=O)(=O)O`, 5; to `CC(CO)C1CCCCCCCCCCC1` (centres undefined), 5. To `COC(=O)C(C=O)c1ccccc1` (centres undefined) belongs 4; to `Clc1cc(Cl)c2oc(C3(Cn4ccnc4)OCCCO3)cc2c1`, 4; to `NS(=O)(=O)C(F)(F)C(F)(F)C(F)(F)C(F)(F)C(F)(F)C(F)(F)C(F)(F)C(F)(F)F`, 3. For `COC(=O)c1nccnc1N`, the GHS category is listed as 5. To `CN(C/C=C/C#CC(C)(C)C)Cc1cccc2ccccc12` belongs 5; to `CCCc1nc(C)c2c(=O)nc(-c3cc(S(=O)(=O)N4CCN(CC)CC4)ccc3OCC)[nH]n12`, 5; to `CS(C)(=O)=O`, 5. `CCCCCCCCC(=O)O` registered a GHS category of 5. To `Nc1ccc(N=Nc2ccc(N=Nc3c(S(=O)(=O)O)cc4cc(S(=O)(=O)O)c(N=Nc5ccc(N=Nc6ccc(N)cc6N)cc5)c(O)c4c3N)cc2)c(N)c1` belongs 5; to `CN(C)c1ccc(C=Nc2ccccc2C(=O)O)cc1`, 4; to `O=C(O)CNC(c1ccccc1)c1ccc(F)cc1` (centres undefined), 4. To `O=C1CN2CCOC2(c2ccccc2F)c2cc(Cl)ccc2N1CCO` (centres undefined) belongs 5; to `O=C1OCCC1O` (centres undefined), 5. To `CCCCCCCCCCCCCCC(C)c1cc(C)cc(C)c1O` (centres undefined) belongs 5. Molecule `CCCCC(=O)O[C@]1(C(=O)COC(C)=O)CC[C@H]2[C@@H]3CCC4=CC(=O)C=C[C@]4(C)[C@H]3[C@@H](O)C[C@@]21C` displayed a GHS category of 5. With `COC(=O)C(O)(c1cccs1)c1cccs1` the figure was 5; with `CC(=O)Oc1c(I)cc(I)cc1C(=O)Nc1ccc(Cl)cc1`, 5. `Cc1ccc2c(c1)c(-c1ccccc1)nn2CCCN(C)C` gave a GHS category of 4.

Take `O=C(O)CC[C@@H](C(=O)O)N(CC(=O)O)CC(=O)O`: the GHS category turned out to be 5.

`COc1ccccc1N1CCN(/C(=N\CC(C)C)Nc2ccc(Cl)c(Cl)c2)CC1` gave a GHS category of 4. To `O=C(NNCc1ccccc1)C(O)C(O)C(O)CO` (centres undefined) belongs 5; to `CC(C)OC(=O)CCC/C=C\C[C@@H]1[C@@H](CC[C@@H](O)CCc2ccccc2)[C@H](O)C[C@@H]1O`, 1.
